“Also recorded” adds a separate entry of the source.
Tests used:
[1] = 25° C.; cited from earlier work
A549 cells = assay: Migration of latex beads on A549 cell surface after application of surfactant (microgrid / semi-automated counting); format: cell-based; details: 4.5 μm latex beads on A549 cells, CELLocate microgrid, surfactant applied directly; p<0.05, ANOVA; water control showed no migration
Description: A particularly preferred embodiment of the present invention comprises the identification of molecules to be used in the pMDI to push the medication deeper into the lungs. For this purpose an in vitro technique to visualize and monitor migration of latex beads placed on tissue cells after application of the appropriate surfactant may be used. […] K. Fumoto, […]. […] The microgrid coverslips can be used to monitor and quantify bead movement on cell surfaces reflecting similar characteristics to tracheal and pulmonary tissues. […] The movement of latex beads may then be monitored by counting the beads before adding the surfactant and then again after allowing the surfactant to spread for a period of time (for example 10 seconds). […] The effect of pMDI-delivered surfactant, e.g., PTC, Survanta®, on latex bead movement can be determined using the above cell model. […] Beads in 220 μm^2 virtual square grids along a 220×11,000 μm lane (50 grids in total), predefined using the automated stage controller coupled to the microscope, can be counted and quantified, before (initial) and after (final) application of surfactant. Bead migration along an extended lane can then be monitored. […]

Compound	dielectric constant [1]	migration of latex beads (bead count ratio Final:Initial) (A549 cells)
FC(C(F)(F)F)C(F)(F)F [HFA-227]	3.94	–
Phosphatidylcholine [PTC]	–	significant migration of latex beads; also recorded: significantly migrate

Source: patent publication US8591954B2, “Phospholipid-based inhalation system” (Next Breath, LLC, priority 2006, dated 2013)
